Test results as given in the supplement of paper PMC11061612.

What was measured:
[1] = system: KGN (Other Solid Carcinomas); assay: combination Emax (second highest fraction inhibited in the dose matrix, 72 h); higher = more inhibition; extreme values may be limits of the assay
Procedure, shortened: (§1)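 Cell lines in DMEM/F12 or RPMI with 10% FBS were plated in 1536-well plates, held 24 hours at 37°C, 5% CO2, then given two-drug dose matrices for 72 hours (DMSO typically 0.2%). Viability was read by CellTiter-Glo 2.0 luminescence and scaled as inhibition from 0 (vehicle wells) to 1 (blank wells). Combination Emax is the second-highest inhibition in the matrix; Bliss excess is observed combination effect minus expected EA + EB − EA·EB, EA and EB being single-agent effects.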

[2] = system: MDA-MB-453 (Breast Carcinoma); assay: as above
Procedure, shortened: as §1

[3] = system: KMRC-1 (Kidney Carcinoma); assay: as above
Procedure, shortened: as §1

[4] = system: SW982 (Other Solid Carcinomas); assay: as above
Procedure, shortened: as §1

[5] = system: NCI-H1993 (Lung Adenocarcinoma); assay: as above
Procedure, shortened: as §1

[6] = system: COLO-668 (Small Cell Lung Carcinoma); assay: as above
Procedure, shortened: as §1

[7] = system: ML-2 (Acute Myeloid Leukemia); assay: as above
Procedure, shortened: as §1

[8] = system: COLO-679 (Melanoma); assay: as above
Procedure, shortened: as §1

[9] = system: NCI-H522 (Lung Adenocarcinoma); assay: as above
Procedure, shortened: as §1

[10] = system: SNU-387 (Hepatocellular Carcinoma); assay: as above
Procedure, shortened: as §1

[11] = system: ME-180 (Cervical Carcinoma); assay: as above
Procedure, shortened: as §1

[12] = system: OE33 (Esophageal Adenocarcinoma); assay: as above
Procedure, shortened: as §1

[13] = system: A4-Fuk (B-Lymphoblastic Leukemia); assay: as above
Procedure, shortened: as §1

[14] = system: MV-4-11 (Acute Myeloid Leukemia); assay: as above
Procedure, shortened: as §1

[15] = system: MOG-G-UVW (Low Grade Glioma); assay: as above
Procedure, shortened: as §1

[16] = system: KMRC-1 (Kidney Carcinoma); assay: Bliss excess, mean over the matrix (fraction); higher = more synergy
Procedure, shortened: as §1

[17] = system: MOLT-4 (T-Lymphoblastic Leukemia); assay: as above
Procedure, shortened: as §1

[18] = system: NCI-H522 (Lung Adenocarcinoma); assay: as above
Procedure, shortened: as §1

[19] = system: SW872 (Other Solid Carcinomas); assay: as above
Procedure, shortened: as §1

[20] = system: OE33 (Esophageal Adenocarcinoma); assay: as above
Procedure, shortened: as §1
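Wherever Bliss excess, mean over the matrix is given: after 72 h of two-drug dosing.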

Structure (SMILES) | combination Emax [1] | combination Emax [2] | combination Emax [3] | combination Emax [4] | combination Emax [5] | combination Emax [6] | combination Emax [7] | combination Emax [8] | combination Emax [9] | combination Emax [10] | combination Emax [11] | combination Emax [12] | combination Emax [13] | combination Emax [14] | combination Emax [15] | Bliss excess [16] | Bliss excess [17] | Bliss excess [18] | Bliss excess [19] | Bliss excess [20]
N#Cc1cnc(Nc2cc(NC[C@H]3CNCCO3)c(C(F)(F)F)cn2)cn1 [SRA737] + O=c1[nH]cc(F)c(=O)[nH]1 [5-Fluorouracil] (first compound max 10 µM, 7x7, partner max 20 µM) | 0.572 | 0.534 | 0.543 | 0.679 | 0.76 | 0.483 | 0.963 | 0.7 | 0.0376 | 0.364 | 0.564 | 0.721 | 0.905 | 0.967 | 0.558 | 0.0038 | 0.013 | -0.0524 | 0.0629 | 0.0184
N#Cc1cnc(Nc2cc(NC[C@H]3CNCCO3)c(C(F)(F)F)cn2)cn1 [SRA737] + CCc1c2c(nc3ccc(O)cc13)-c1cc3c(c(=O)n1C2)COC(=O)[C@]3(O)CC [SN-38] (first compound max 10 µM, 7x7, partner max 0.3 µM) | 0.836 | 0.719 | 0.525 | 0.829 | 0.835 | 0.953 | 1 | 0.723 | 0.635 | 0.548 | 0.95 | 0.8 | 0.974 | 0.996 | 0.925 | -0.0193 | 0.002 | 0.0337 | -0.0142 | -0.0371
CN(CCO)CC[C@H](CSc1ccccc1)Nc1ccc(S(=O)(=O)NC(=O)c2ccc(N3CCC([C@@H](O)c4ccccc4-c4ccc(Cl)cc4)CC3)cc2)cc1S(=O)(=O)C(F)(F)F [AZD4320] + CCN(CCO)CCCOc1ccc2c(Nc3cc(CC(=O)Nc4cccc(F)c4)[nH]n3)ncnc2c1 [AZD2811] (first compound max 1 µM, 7x7, partner max 1 µM) | 0.497 | 0.324 | 0.144 | 0.814 | 0.704 | 0.915 | 1 | 0.275 | 0.105 | 0.227 | 0.624 | 0.0773 | 0.417 | 1 | 0.509 | -0.0359 | 0.0322 | -0.0471 | -0.0215 | -0.0398
CN(CCO)CC[C@H](CSc1ccccc1)Nc1ccc(S(=O)(=O)NC(=O)c2ccc(N3CCC([C@@H](O)c4ccccc4-c4ccc(Cl)cc4)CC3)cc2)cc1S(=O)(=O)C(F)(F)F [AZD4320] + Nc1ccn([C@@H]2O[C@H](CO)[C@@H](O)C2(F)F)c(=O)n1 [Gemcitabine] (first compound max 1 µM, 7x7, partner max 0.3 µM) | – | 0.731 | 0.902 | 1 | 0.937 | 0.966 | 1 | 0.851 | 0.224 | 0.218 | 0.878 | 0.586 | 0.914 | 1 | 0.821 | 0.0287 | -0.0209 | -0.0645 | 0.0199 | -0.0527
COc1cc2ncnc(Nc3ccc(F)c(Cl)c3)c2cc1OCCCN1CCOCC1 [Gefitinib] + CC(C)n1c(=O)n(C)c2cnc3cc(F)c(-c4ccc(OCCCN5CCCCC5)nc4)cc3c21 [AZD1390] (first compound max 10 µM, 7x7, partner max 0.3 µM) | 0.368 | 0.204 | 0.0966 | 0.316 | 0.349 | 0.176 | 0.168 | 0.0902 | 0.196 | 0.169 | 0.42 | 0.413 | 0.307 | 0.754 | 0.115 | -0.0702 | 0.009 | -0.0551 | -0.025 | -0.0434
COc1cc2c(cc1OCCCCCOc1cc3c(cc1OC)C(=O)N1C=C(C)C[C@H]1C=N3)N=C[C@@H]1CC(C)=CN1C2=O [SG3199] + O=C(c1cc(Cc2n[nH]c(=O)c3ccccc23)ccc1F)N1CCN(C(=O)C2CC2)CC1 [Olaparib] (first compound max 0.001 µM, 7x7, partner max 10 µM) | 0.475 | 0.128 | 0.0927 | 0.43 | 0.0845 | 0.163 | 0.436 | 0.108 | 0.144 | 0.104 | 0.201 | 0.0504 | 0.157 | 0.402 | 0.307 | -0.0251 | 0.0061 | -0.0245 | -0.0209 | -0.0276
Cc1cc2ncnn2cc1Nc1ncc2c(n1)n(C1CCOCC1)c(=O)n2C [AZD7648] + C[C@@H]1COCCN1C2=NC(=NC(=C2)C3(CC3)[S@](=N)(=O)C)C4=C5C=CNC5=NC=C4 [AZD6738] (first compound max 10 µM, 7x7, partner max 10 µM) | 0.873 | 0.832 | 0.518 | 0.73 | 0.665 | 0.579 | 0.968 | 0.687 | 0.193 | 0.388 | 0.442 | 0.784 | 0.765 | 0.983 | 0.795 | 0.0397 | 0.0427 | 0.0231 | 0.0801 | -0.0187
CN(CCO)CC[C@H](CSc1ccccc1)Nc1ccc(S(=O)(=O)NC(=O)c2ccc(N3CCC([C@@H](O)c4ccccc4-c4ccc(Cl)cc4)CC3)cc2)cc1S(=O)(=O)C(F)(F)F [AZD4320] + Cn1cnc2c(F)c(Nc3ccc(Br)cc3Cl)c(C(=O)NOCCO)cc21 [Selumetinib] (first compound max 1 µM, 7x7, partner max 3 µM) | 0.34 | 0.331 | 0.253 | 0.844 | 0.935 | 0.989 | 1 | 0.834 | 0.301 | 0.445 | 0.333 | 0.214 | 0.456 | 1 | 0.593 | 0.0167 | 0.0365 | -0.0181 | 0.0556 | 0.0249
CN(CCO)CC[C@H](CSc1ccccc1)Nc1ccc(S(=O)(=O)NC(=O)c2ccc(N3CCC([C@@H](O)c4ccccc4-c4ccc(Cl)cc4)CC3)cc2)cc1S(=O)(=O)C(F)(F)F [AZD4320] + C1CN(CCC1(C(=O)N[C@@H](CCO)C2=CC=C(C=C2)Cl)N)C3=NC=NC4=C3C=CN4 [Capivasertib] (first compound max 1 µM, 7x7, partner max 3 µM) | 0.323 | 0.596 | 0.51 | 0.278 | 0.791 | – | 0.984 | 0.0975 | 0.049 | 0.213 | 0.507 | 0.0577 | 0.683 | 1 | 0.355 | 0.0094 | 0.0173 | -0.034 | -0.0237 | -0.0575
C[C@@H](c1ccc2nccn2c1)n1nnc2ncc(-c3cnn(C)c3)nc21 [Savolitinib] + Cc1c2c(nn1C)CSCc1cc(n(C)n1)CSc1cc(c3ccccc3c1)OCCCc1c(C(=O)O)n(C)c3c-2c(Cl)ccc13 [AZD5991] (first compound max 1 µM, 7x7, partner max 1 µM) | 0.303 | 0.261 | 0.209 | 0.119 | 0.789 | 0.257 | 1 | 0.163 | 0.281 | 0.342 | 0.114 | 0.328 | 1 | 1 | 0.343 | -0.0473 | 0.0706 | -0.0353 | 0.003 | -0.0152
Cc1c2c(nn1C)CSCc1cc(n(C)n1)CSc1cc(c3ccccc3c1)OCCCc1c(C(=O)O)n(C)c3c-2c(Cl)ccc13 [AZD5991] + Cn1cnc2c(F)c(Nc3ccc(Br)cc3Cl)c(C(=O)NOCCO)cc21 [Selumetinib] (first compound max 1 µM, 7x7, partner max 3 µM) | 0.299 | 0.289 | 0.197 | 0.377 | 0.511 | 0.666 | 1 | 0.832 | 0.409 | 0.619 | 0.26 | 0.19 | 1 | 1 | 0.302 | -0.0396 | 0.0167 | -0.0194 | -0.003 | –
CN(CCO)CC[C@H](CSc1ccccc1)Nc1ccc(S(=O)(=O)NC(=O)c2ccc(N3CCC([C@@H](O)c4ccccc4-c4ccc(Cl)cc4)CC3)cc2)cc1S(=O)(=O)C(F)(F)F [AZD4320] + C[C@@H]1COCCN1C2=NC(=NC(=C2)C3(CC3)[S@](=N)(=O)C)C4=C5C=CNC5=NC=C4 [AZD6738] (first compound max 1 µM, 7x7, partner max 10 µM) | 0.874 | 0.803 | 0.656 | 0.886 | 0.766 | 0.983 | 1 | 0.771 | 0.156 | 0.541 | 0.564 | 0.843 | 0.715 | 1 | 0.794 | -0.0358 | -0.0084 | -0.0555 | -0.039 | -0.0295
C[C@@H](c1ccc2nccn2c1)n1nnc2ncc(-c3cnn(C)c3)nc21 [Savolitinib] + CC1(C)CCC(CN2CCN(c3ccc(C(=O)NS(=O)(=O)c4ccc(NCC5CCOCC5)c([N+](=O)[O-])c4)c(Oc4cnc5[nH]ccc5c4)c3)CC2)=C(c2ccc(Cl)cc2)C1 [Venetoclax] (first compound max 1 µM, 7x7, partner max 1 µM) | 0.233 | 0.15 | 0.141 | 0.128 | 0.754 | 0.295 | 0.46 | 0.109 | 0.111 | 0.244 | 0.114 | 0.301 | 0.199 | 1 | 0.392 | -0.0899 | 0.0879 | -0.0504 | -0.0203 | 0.001
